Here are results for eight compounds from PMC10728895, “Stapled Phd Peptides Inhibit Doc Toxin Induced Growth Arrest in Salmonella” (ACS Chemical Biology, 2023).

The subject of test [1] is DocSTm toxin. The conditions noted are these: DocSTm 5 μM, peptide 50 μM, pH 8.0; average ± SD, replicates 3-48 (Table S3). The method, boiled down:
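Thermal shift with 5 μM recombinant Doc toxin and 50 μM Phd peptides in 20 mM K2HPO4, 50 mM (NH4)2SO4, pH 8.0, SYPRO Orange 3×, ramped 25–95 °C. Tm from Boltzmann fit; ΔTm is peptide-bound minus free DocSTm Tm, triplicates.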

Test [2] has as its system DocSTm (phosphorylation of EF-TuSTm). Put plainly: Dot blot EF-Tu phosphorylation assay. The conditions noted are these: DocSTm 1 μM, EF-TuSTm 3 μM, peptide 10 μM to 5 nM (3-fold dilutions), 16 h RT, dot blot anti-phosphothreonine; compared at three times the DocSTm concentration; two independent experiments. It counts as biochemical, Salmonella Typhimurium. The protocol:
Samples were prepared in assay buffer [50 mM HEPES (pH 7.5), 25 mM (NH4)2SO4, 2 mM TCEP, 2 mM MgCl2, and 1 mM ATP] with a final concentration of recombinant Doc at 1 μM, recombinant EF-Tu at 3 μM, and varying concentrations of synthetic Phd peptides (final concentrations: 10 μM to 5 nM). EF-Tu (3 μM) in assay buffer was used as a negative control (no Doc and Phd peptide), while EF-Tu (3 μM) with Doc (1 μM) in assay buffer was used as a positive control (no Doc inhibitor). The final sample volume was 10 μL. Samples were incubated for 16 h at RT and subsequently spotted on a nitrocellulose membrane. Phosphorylated EF-Tu was detected by immunodecoration using a rabbit monoclonal antiphosphothreonine antibody (Abcam, ab218195) at 1:2000 dilution (1 h at 4 °C), followed by incubation with a goat antirabbit IgG (H + L) HRP conjugate antibody (Advansta) at 1:10,000 dilution (1 h at RT). Chemiluminescence was developed using the HRP Luminata Kit (Merck, WBLUR0100) and captured with an ImageQuant LAS4000 Western blot imaging system (GE HealthCare). Each peptide was tested in two independent experiments.

Positions of bridges follow the written chain, without caps; N, C: chain ends. Non-standard residues stand in square brackets, D forms with d. Residues, ends and D or L forms follow the SMILES beside them. S5 = C=CCCC[C@](C)(N)C(=O)O; Nle = CCCC[C@H](N)C(=O)O

For `CCCC[C@H](NC(=O)[C@H](Cc1c[nH]c2ccccc12)NC(C)=O)C(=O)N[C@@H](CCCNC(=N)N)C(=O)N[C@@H](CC(=O)O)C(=O)N[C@@H](CCC(=O)O)C(=O)N[C@@H](Cc1ccccc1)C(=O)N[C@@H](C)C(=O)N[C@@H](C)C(=O)N[C@H](C(=O)N[C@@H](CCCC)C(=O)N[C@@H](CCCNC(=N)N)C(=O)N[C@H](C(=O)N[C@@H](Cc1c[nH]cn1)C(=O)NCC(=O)N[C@@]1(C)CCCC=CCCC[C@@](C)(C(=O)N[C@@H](CC(C)C)C(=O)N[C@@H](C)C(=O)N[C@@H](CC(=O)O)C(=O)N[C@@H](CCCCN)C(=O)O)NC(=O)[C@H](CCCNC(=N)N)NC(=O)[C@H](CC(C)C)NC(=O)[C@H](CCC(=O)O)NC1=O)C(C)C)[C@@H](C)CC` [Peptide 18] (Ac-W[Nle]RDEFAAI[Nle]RVHG[S5]ELR[S5]LADK-OH; staple 15-19), in test [1], the “Average Tm of DocSTm in the presence of peptide” value (from here on “Average Tm of DocSTm”) was found to be 66.3 ± 0.2 °C. The “Inhibition of EF-TuSTm phosphorylation by DocSTm (concentration needed for full inhibition)” value (shortened to “Inhibition of EF-TuSTm phosphorylation”) in test [2] is listed as “required a higher concentration to achieve full inhibition”.
In the same order, the values of `CCCC[C@H](NC(=O)[C@H](Cc1c[nH]c2ccccc12)NC(C)=O)C(=O)N[C@@H](CCCNC(=N)N)C(=O)N[C@@H](CC(N)=O)C(=O)N[C@@H](CCC(=O)O)C(=O)N[C@@H](Cc1ccccc1)C(=O)N[C@@H](CCCNC(=N)N)C(=O)N[C@@H](C)C(=O)N[C@H](C(=O)N[C@@H](CCCC)C(=O)N[C@@H](CCCNC(=N)N)C(=O)N[C@H](C(=O)N[C@@H](Cc1c[nH]cn1)C(=O)NCC(=O)N[C@@]1(C)CCCC=CCCC[C@@](C)(C(=O)N[C@@H](CC(C)C)C(=O)N[C@@H](C)C(=O)N[C@@H](CC(N)=O)C(=O)N[C@@H](CCCCN)C(=O)O)NC(=O)[C@H](CCCNC(=N)N)NC(=O)[C@H](CC(C)C)NC(=O)[C@H](CCC(N)=O)NC1=O)C(C)C)[C@@H](C)CC` [Peptide 29] (Ac-W[Nle]RNEFRAI[Nle]RVHG[S5]QLR[S5]LANK-OH; staple 15-19) are 61.6 ± 0.3 °C and “required a higher concentration for full DocSTm inhibition”.
As for `CCCC[C@H](NC(=O)[C@H](Cc1c[nH]c2ccccc12)NC(C)=O)C(=O)N[C@@H](CCCNC(=N)N)C(=O)N[C@@H](CC(=O)O)C(=O)N[C@@H](CCC(=O)O)C(=O)N[C@@H](Cc1ccccc1)C(=O)N[C@@H](CCCNC(=N)N)C(=O)N[C@@H](C)C(=O)N[C@H](C(=O)N[C@@H](CCCC)C(=O)N[C@@H](CCCNC(=N)N)C(=O)N[C@H](C(=O)N[C@@H](Cc1c[nH]cn1)C(=O)NCC(=O)N[C@@H](CC(N)=O)C(=O)N[C@@H](CCC(=O)O)C(=O)N[C@@H](CC(C)C)C(=O)N[C@@H](CCCNC(=N)N)C(=O)N[C@@H](CCC(=O)O)C(=O)N[C@@H](CC(C)C)C(=O)N[C@@H](C)C(=O)N[C@@H](CC(=O)O)C(=O)N[C@@H](CCCCN)C(=O)O)C(C)C)[C@@H](C)CC` [Peptide 19] (Ac-W[Nle]RDEFRAI[Nle]RVHGNELRELADK-OH), the “Average Tm of DocSTm” value in test [1] turned out to be 62.5 ± 0.9 °C. In addition, the “Inhibition of EF-TuSTm phosphorylation” value in test [2] is on record as “fully inhibited”.
The matching figures for `CCCC[C@H](NC(=O)[C@H](Cc1c[nH]c2ccccc12)NC(C)=O)C(=O)N[C@@H](CCCNC(=N)N)C(=O)N[C@@H](CC(=O)O)C(=O)N[C@@H](CCC(=O)O)C(=O)N[C@@H](Cc1ccccc1)C(=O)N[C@@H](CCCNC(=N)N)C(=O)N[C@@H](C)C(=O)N[C@H](C(=O)N[C@@H](CCCC)C(=O)N[C@@H](CCCNC(=N)N)C(=O)N[C@H](C(=O)N[C@@H](Cc1c[nH]cn1)C(=O)NCC(=O)N[C@@]1(C)CCCC=CCCC[C@@](C)(C(=O)N[C@@H](CC(C)C)C(=O)N[C@@H](C)C(=O)N[C@@H](CC(=O)O)C(=O)N[C@@H](CCCCN)C(=O)O)NC(=O)[C@H](CCCNC(=N)N)NC(=O)[C@H](CC(C)C)NC(=O)[C@H](CCC(=O)O)NC1=O)C(C)C)[C@@H](C)CC` [Peptide 21] (Ac-W[Nle]RDEFRAI[Nle]RVHG[S5]ELR[S5]LADK-OH; staple 15-19): 61.1 ± 2.5 °C and “required a higher concentration to achieve full inhibition”.
Turning to `CCCC[C@H](NC(=O)[C@H](Cc1c[nH]c2ccccc12)NC(C)=O)C(=O)N[C@@H](CCCNC(=N)N)C(=O)N[C@@]1(C)CCCC=CCCC[C@@](C)(C(=O)N[C@H](C(=O)N[C@@H](CCCC)C(=O)N[C@@H](CCCNC(=N)N)C(=O)N[C@H](C(=O)N[C@@H](Cc2c[nH]cn2)C(=O)NCC(=O)N[C@@H](CC(N)=O)C(=O)N[C@@H](CCC(=O)O)C(=O)N[C@@H](CC(C)C)C(=O)N[C@@H](CCCNC(=N)N)C(=O)N[C@@H](CCC(=O)O)C(=O)N[C@@H](CC(C)C)C(=O)N[C@@H](C)C(=O)N[C@@H](CC(=O)O)C(=O)N[C@@H](CCCCN)C(=O)O)C(C)C)[C@@H](C)CC)NC(=O)[C@H](CCCNC(=N)N)NC(=O)[C@H](Cc2ccccc2)NC(=O)[C@H](CCC(=O)O)NC1=O` [Peptide 20] (Ac-W[Nle]R[S5]EFR[S5]I[Nle]RVHGNELRELADK-OH; staple 4-8), the “Average Tm of DocSTm” value in test [1] was determined as 60.4 ± 0.4 °C. For the same compound, the “Inhibition of EF-TuSTm phosphorylation” value in test [2] was “required a higher concentration to achieve full inhibition”.
Take `CCCC[C@H](NC(=O)[C@H](Cc1c[nH]c2ccccc12)NC(C)=O)C(=O)N[C@@H](CCCNC(=N)N)C(=O)N[C@@H](CC(=O)O)C(=O)N[C@@H](CCC(=O)O)C(=O)N[C@@H](Cc1ccccc1)C(=O)N[C@@H](C)C(=O)N[C@@H](C)C(=O)N[C@H](C(=O)N[C@@H](CCCC)C(=O)N[C@@H](CCCNC(=N)N)C(=O)N[C@H](C(=O)N[C@@H](Cc1c[nH]cn1)C(=O)NCC(=O)N[C@@H](CC(N)=O)C(=O)N[C@@H](CCC(=O)O)C(=O)N[C@@H](CC(C)C)C(=O)N[C@@H](CCCNC(=N)N)C(=O)N[C@@H](CCC(=O)O)C(=O)N[C@@H](CC(C)C)C(=O)N[C@@H](C)C(=O)N[C@@H](CC(=O)O)C(=O)N[C@@H](CCCCN)C(=O)O)C(C)C)[C@@H](C)CC` [Peptide 16] (Ac-W[Nle]RDEFAAI[Nle]RVHGNELRELADK-OH): in test [1], the “Average Tm of DocSTm” value was determined as 65.0 ± 0.4 °C. Also, the “Inhibition of EF-TuSTm phosphorylation” value in test [2] is “fully inhibited”.
The matching figures for `CCCC[C@H](NC(=O)[C@H](Cc1c[nH]c2ccccc12)NC(C)=O)C(=O)N[C@@H](CCCNC(=N)N)C(=O)N[C@@]1(C)CCCC=CCCC[C@@](C)(C(=O)N[C@H](C(=O)N[C@@H](CCCC)C(=O)N[C@@H](CCCNC(=N)N)C(=O)N[C@H](C(=O)N[C@@H](Cc2c[nH]cn2)C(=O)NCC(=O)N[C@@H](CC(N)=O)C(=O)N[C@@H](CCC(=O)O)C(=O)N[C@@H](CC(C)C)C(=O)N[C@@H](CCCNC(=N)N)C(=O)N[C@@H](CCC(=O)O)C(=O)N[C@@H](CC(C)C)C(=O)N[C@@H](C)C(=O)N[C@@H](CC(=O)O)C(=O)N[C@@H](CCCCN)C(=O)O)C(C)C)[C@@H](C)CC)NC(=O)[C@H](C)NC(=O)[C@H](Cc2ccccc2)NC(=O)[C@H](CCC(=O)O)NC1=O` [Peptide 17] (Ac-W[Nle]R[S5]EFA[S5]I[Nle]RVHGNELRELADK-OH; staple 4-8): 61.3 ± 0.3 °C and “required a higher concentration to achieve full inhibition”.
In the same order, the values of `CCCC[C@H](NC(=O)[C@H](Cc1c[nH]c2ccccc12)NC(C)=O)C(=O)N[C@@H](CC(N)=O)C(=O)N[C@@H](CC(N)=O)C(=O)N[C@@H](CCC(=O)O)C(=O)N[C@@H](Cc1ccccc1)C(=O)N[C@@H](C)C(=O)N[C@@H](C)C(=O)N[C@H](C(=O)N[C@@H](CCCC)C(=O)N[C@@H](C)C(=O)N[C@H](C(=O)N[C@@H](Cc1c[nH]cn1)C(=O)NCC(=O)N[C@@H](CCCNC(=N)N)C(=O)N[C@@H](CCC(N)=O)C(=O)N[C@@H](CC(C)C)C(=O)N[C@@H](CCCNC(=N)N)C(=O)N[C@@H](CCCNC(=N)N)C(=O)N[C@@H](CC(C)C)C(=O)N[C@@H](C)C(=O)N[C@@H](CC(N)=O)C(=O)N[C@@H](CCCCN)C(=O)O)C(C)C)[C@@H](C)CC` [Peptide 31] (Ac-W[Nle]NNEFAAI[Nle]AVHGRQLRRLANK-OH) are 61.6 ± 1.9 °C and “higher than three times the DocSTm concentration”.
